The record followed here is ChEMBL document CHEMBL1146846, “Discovery of protein-protein binding disruptors using multi-component condensations small molecules” (Bioorg Med Chem Lett, 2006).

The source made the active and inactive calls. The rule behind the calls is not given here.

One data set deals with Neuropilin-1 (Homo sapiens, UniProt O14786). As to the kind of experiment: Inhibition of VEGF165-NRP1 interaction by ELISA. A general note: An ELISA detects its analyte on a solid surface through an enzyme-linked reagent.
For data set [1], the system named is PC-3. As to the kind of experiment: Inhibition of PC3 cell migration. It is filed as functional, cell-based. The following applies: Homo sapiens.
Data set [2] deals with PC-3. As to the kind of experiment: Toxicity against PC3 cell line by LDH-release assay. In kind it is cell-based. Particulars: human.

Neuropilin-1, sequence (O14786 whole entry): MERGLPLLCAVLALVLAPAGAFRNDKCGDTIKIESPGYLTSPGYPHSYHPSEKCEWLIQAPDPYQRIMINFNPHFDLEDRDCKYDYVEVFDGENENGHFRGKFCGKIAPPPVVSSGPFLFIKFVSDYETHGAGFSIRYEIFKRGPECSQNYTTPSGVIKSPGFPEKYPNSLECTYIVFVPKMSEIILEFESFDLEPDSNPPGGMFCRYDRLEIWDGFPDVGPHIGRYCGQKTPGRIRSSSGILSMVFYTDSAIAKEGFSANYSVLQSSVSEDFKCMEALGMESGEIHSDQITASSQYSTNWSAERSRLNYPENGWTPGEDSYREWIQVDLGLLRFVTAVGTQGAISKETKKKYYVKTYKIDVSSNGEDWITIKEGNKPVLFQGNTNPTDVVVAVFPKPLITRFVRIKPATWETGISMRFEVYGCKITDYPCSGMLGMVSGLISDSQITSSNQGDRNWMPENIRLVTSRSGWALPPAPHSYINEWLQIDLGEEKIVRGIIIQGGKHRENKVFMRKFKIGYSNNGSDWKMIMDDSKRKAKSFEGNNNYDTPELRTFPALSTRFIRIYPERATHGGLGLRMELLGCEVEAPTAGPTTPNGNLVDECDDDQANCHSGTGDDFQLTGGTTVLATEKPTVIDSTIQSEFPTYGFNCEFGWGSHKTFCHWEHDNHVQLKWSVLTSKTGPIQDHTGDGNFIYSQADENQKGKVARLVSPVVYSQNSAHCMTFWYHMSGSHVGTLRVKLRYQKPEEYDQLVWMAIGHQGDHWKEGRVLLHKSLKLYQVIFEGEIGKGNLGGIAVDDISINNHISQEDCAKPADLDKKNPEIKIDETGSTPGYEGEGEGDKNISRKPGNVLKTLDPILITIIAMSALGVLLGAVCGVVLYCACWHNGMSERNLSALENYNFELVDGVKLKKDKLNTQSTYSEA

At Neuropilin-1, `N#Cc1c(-c2cccnc2)c(NCCc2ccccc2)n2c(Cl)cccc12` showed an IC50 of 4 µM. Same read-out and setting: as for `N#Cc1c(-c2ccc(F)c3ccccc23)c(NCCc2ccccc2)n2c(Cl)cccc12`, the figure is 4 µM; as for `COc1cccc(-c2c(C#N)c3cccc(Cl)n3c2NCCc2ccccc2)c1`, 2 µM. The same measure, in the same setting: with `Cc1cccc(C)c1Nc1c(-c2ccccc2)c(C#N)c2cccc(Cl)n12` the figure was 60 µM; with `N#Cc1c(-c2ccccc2)c(NCCc2ccc(Cl)cc2)n2c(Cl)cccc12`, 4 µM.

Turning to `N#Cc1c(-c2ccccc2)c(Nc2cccc(N)c2)n2c(Cl)cccc12`, the half-inhibitory concentration (IC50) on Neuropilin-1 is 80 µM.

On Neuropilin-1, `CN(C)c1ccc(Nc2c(-c3ccccc3)c(C#N)c3cccc(Cl)n23)cc1` came in with an IC50 of 47 µM.

On Neuropilin-1, `Cc1ccccc1-c1c(C#N)c2cccc(Cl)n2c1NCCc1ccccc1` displayed an IC50 of 9 µM. On Neuropilin-1, `N#Cc1c(-c2ccccc2)c(NCc2ccc(Cl)c(Cl)c2)n2c(Cl)cccc12` came in with an IC50 of 13 µM. Molecule `CN(C)CCNc1cccc2c(C#N)c(-c3ccccc3)c(NC3CCCCC3)n12` gave a concentration for half-maximal inhibition (IC50) on Neuropilin-1 of 42 µM. With `N#Cc1c(-c2ccccc2)c(NCCc2ccccc2Cl)n2c(Cl)cccc12`, the values for the IC50 with PC-3 [1] and against Neuropilin-1 were 23 µM and 3 µM, respectively. In addition, the Activity result in the data set on PC-3 [2] is reported as “Non-toxic”. On Neuropilin-1, `COc1ccccc1-c1c(C#N)c2cccc(Cl)n2c1NCCc1ccccc1` yielded an IC50 of 3 µM.

As to `N#Cc1c(-c2ccccn2)c(NCCc2ccccc2)n2c(Cl)cccc12`, the IC50 against Neuropilin-1 turned out to be 2 µM. On the same count and under the same terms, as for `N#Cc1c(CCO)c(NCCc2ccccc2)n2c(Cl)cccc12`, the figure is 13 µM.

As for `N#Cc1c(-c2cccc(F)c2)c(NCCc2ccccc2)n2c(Cl)cccc12`, the IC50 in the data set on PC-3 [1] is 8 µM; on Neuropilin-1, 2 µM. The Activity result in the data set with PC-3 [2] is “Non-toxic”. For `N#Cc1c(-c2ccccc2)c(NCCc2ccccc2)n2c(Cl)cccc12`, in that order: 21 µM, 2 µM and “Non-toxic”.

The molecule `Cc1ccc(-c2c(C#N)c3cccc(Cl)n3c2NCCc2ccccc2)cc1` came in with an IC50 on Neuropilin-1 of 5 µM. Still for that read-out and setting: with `Cc1cnc(-c2c(C#N)c3cccc(Cl)n3c2NCCc2ccccc2)s1` the figure was 22 µM. In the case of `CCN(CC)CCNc1c(-c2ccccc2)c(C#N)c2cccc(Cl)n12`, the outcome on Neuropilin-1 was inactive. As for `CN(C)CCCOc1ccc(-c2c(C#N)c3cccc(Cl)n3c2NCCc2ccccc2)cc1`, it took 10 µM to reach half-maximal inhibition at Neuropilin-1 (IC50). `N#Cc1c(-c2ccccc2)c(NC2CCCCC2)n2c(Cl)cccc12`: the IC50 stood at 72 µM in the data set on PC-3 [1] and 29 µM on Neuropilin-1. Besides, the Activity entry in the data set on PC-3 [2] is “Non-toxic”. On the same counts, the results for `N#Cc1c(-c2ccccc2)c(NCC(=O)NCc2ccco2)n2c(Cl)cccc12` are 54 µM, 19 µM and “Non-toxic”. With `CSc1cccc2c(C#N)c(-c3ccccc3)c(NC3CCCCC3)n12`, the outcome on Neuropilin-1 was inactive. Molecule `CN(C)CCCOc1cccc2c(C#N)c(-c3ccccc3)c(NC3CCCCC3)n12` had an IC50 against Neuropilin-1 of 79 µM. Regarding `COc1ccc(-c2c(C#N)c3cccc(Cl)n3c2NCCc2ccccc2)cc1`, the half-maximal inhibitory concentration (IC50) against Neuropilin-1 came out at 5 µM. On Neuropilin-1, `N#Cc1c(-c2cccc(S)c2)c(NCCc2ccccc2)n2c(Cl)cccc12` returned a half-inhibitory concentration (IC50) of 6 µM. Take `COc1ccc(CNc2c(-c3ccccc3)c(C#N)c3cccc(Cl)n23)c(OC)c1`: the outcome at Neuropilin-1 was inactive. On the same count and under the same terms, with `N#Cc1c(-c2ccccc2)c(NC(=O)c2ccccc2)n2c(Cl)cccc12` the entry was “inactive”. On Neuropilin-1, `N#Cc1c(-c2ccccc2)c(NCCN)n2c(Cl)cccc12` registered a half-inhibitory concentration (IC50) of 43 µM. Regarding `CC(C)(C)c1ccc(-c2c(C#N)c3cccc(Cl)n3c2NCCc2ccccc2)cc1`, inhibition on Neuropilin-1 was half-maximal at 14 µM (IC50). On to `CC(=O)Nc1c(-c2ccccc2)c(C#N)c2cccc(Cl)n12`, for which the outcome on Neuropilin-1 was inactive. On the same count and under the same terms, as for `N#Cc1c(-c2ccccc2)c(NC2CCCCC2)n2c(SCC(=O)O)cccc12`, the entry is “inactive”. `CN(C)CCCNc1c(-c2ccccc2)c(C#N)c2cccc(Cl)n12`: the midpoint of inhibition on Neuropilin-1, the IC50, lay at 62 µM. Still for that read-out and setting: with `N#Cc1c(-c2ccncc2)c(NCCc2ccccc2)n2c(Cl)cccc12` the figure was 6 µM. The same measure, in the same setting: as for `COCCNc1c(-c2ccccc2)c(C#N)c2cccc(Cl)n12`, the figure is 9 µM; as for `N#Cc1c(-c2ccc(F)cc2)c(NCCc2ccccc2)n2c(Cl)cccc12`, 5 µM.

The molecule `CSc1ccc(-c2c(C#N)c3cccc(Cl)n3c2NCCc2ccccc2)cc1` showed an IC50 against Neuropilin-1 of 3 µM. Consider `N#Cc1c(-c2ccccc2)c(N)n2c(Cl)cccc12`, for which the result at Neuropilin-1 was inactive. For `N#Cc1c(CCc2ccccc2)c(NCCc2ccccc2)n2c(Cl)cccc12`, half-maximal inhibition against Neuropilin-1 (IC50) was put at 2 µM. The same measure, in the same setting: with `CN(CCNc1c(-c2ccccc2)c(C#N)c2cccc(Cl)n12)Cc1ccccc1` the figure was 4 µM; with `N#Cc1c(-c2ccc(OC(F)(F)F)cc2)c(NCCc2ccccc2)n2c(Cl)cccc12`, 13 µM. On to `N#Cc1c(-c2ccccc2)c(NC2CCCCC2)n2c(F)cccc12`, for which, at Neuropilin-1, the outcome was inactive. Consider `N#Cc1c(-c2cccc(Cl)c2)c(NCCc2ccccc2)n2c(Cl)cccc12`, for which half-maximal inhibition against Neuropilin-1 (IC50) was put at 3 µM. On Neuropilin-1, `N#Cc1c(-c2ccccc2F)c(NCCc2ccccc2)n2c(Cl)cccc12` yielded an IC50 of 3 µM.

Consider `Cc1ccc(C)c(-c2c(C#N)c3cccc(Cl)n3c2NCCc2ccccc2)c1`, for which, at Neuropilin-1, half-maximal inhibition (IC50) required 6 µM. Turning to `N#Cc1c(C2CCNCC2)c(NCCc2ccccc2)n2c(Cl)cccc12`, the concentration for half-maximal inhibition (IC50) on Neuropilin-1 was 95 µM.

On to `N#Cc1c(C2CCCCC2)c(NCCc2ccccc2)n2c(Cl)cccc12`, for which the outcome at Neuropilin-1 was inactive.

`N#Cc1c(-c2ccccc2S)c(NCCc2ccccc2)n2c(Cl)cccc12` showed an IC50 on Neuropilin-1 of 10 µM. Still for that read-out and setting: with `N#Cc1c(-c2ccc(Cl)cc2)c(NCCc2ccccc2)n2c(Cl)cccc12` the figure was 2 µM.

For the molecule `COC(=O)CSc1cccc2c(C#N)c(-c3ccccc3)c(NC3CCCCC3)n12`, the outcome at Neuropilin-1 was inactive.

With `N#Cc1c(-c2ccnc3ccccc23)c(NCCc2ccccc2)n2c(Cl)cccc12`, the outcome at Neuropilin-1 was inactive. `N#Cc1c(-c2ccccc2Cl)c(NCCc2ccccc2)n2c(Cl)cccc12`: the midpoint of inhibition on Neuropilin-1, the IC50, lay at 3 µM.

One may read the IC50 as the concentration needed to halve the response being measured.
